# What was measured:
# Rhizopus sp = experiment: In vitro antifungal MIC; assay type: cell-based; details: for MIC Rhizopus sp: 72-96 h incubation; for MIC: Rhizopus, read-out: MIC Rhizopus sp
# B. subtilis (MTCC-121) = experiment: In vitro antibacterial MIC, microbroth dilution; assay type: cell-based; details: for MIC B. subtilius: 24 h incubation; for potency against B. substilius compared to the standard drug: versus Streptomycin
# A. flavus = experiment: In vitro antifungal MIC; assay type: cell-based; details: for MIC A .flavus: 72-96 h incubation; for MIC: Aspergillus flavus, read-out: MIC A .flavus
# E. coli (MTCC-443) = experiment: In vitro antibacterial MIC, microbroth dilution; assay type: cell-based; details: for MIC E. coli: 24 h incubation; for MIC: Escherichia coli, MTCC443, 24 h, read-out: MIC E. coli
# P. aeruginosa (MTCC-741) = experiment: In vitro antibacterial MIC, microbroth dilution; assay type: cell-based; details: for MIC P. aeruginosa: 24 h incubation; for MIC: Pseudomonas aeruginosa, MTCC741, 24 h, read-out: MIC P. aeruginosa
# [1] = system: peripheral blood mononuclear cells (PBMC); details: MTT assay
# S. aureus (MTCC-96) = experiment: In vitro antibacterial MIC, microbroth dilution; assay type: cell-based; details: for MIC S. aureus: 24 h incubation
# A. niger = experiment: In vitro antifungal MIC; assay type: cell-based; details: for MIC A. niger: 72-96 h incubation; for MIC: Aspergillus niger, read-out: MIC A. niger
# C. albicans = experiment: In vitro antifungal MIC; assay type: cell-based; details: for MIC C. albicans: 72-96 h incubation; for MIC: Candida albicans, read-out: MIC C. albicans
# [2] = system: Mycobacterium tuberculosis H37Rv; experiment: Antitubercular activity, Resazurin Assay method; assay type: cell-based; details: for % Inhibition: primary screening (6.5 mg/mL); for antitubercular activity compared to PZA: M. tuberculosis H37Rv, versus PZA
# K. pneumonia (MTCC2272) = experiment: In vitro antibacterial MIC, microbroth dilution; assay type: cell-based, K. pneumoniae; details: for MIC K. pneumoniae: 24 h incubation; for inhibitory activity against K. pneumoniae compared to standard drug: versus Streptomycin
# [3] = Mycobacterium tuberculosis, H37RV
compound,measurement,setting,value
"3,5-Dimethyl-2,6-bis(p-methoxyphenyl)pyran-4-one N-isonicotinoylhydrazone [Compound 12]",MIC Rhizopus sp,Rhizopus sp,50 µg/mL
same,MIC B. subtilius,B. subtilis (MTCC-121),25 µg/mL
same,MIC A .flavus,A. flavus,12.5 µg/mL
same,MIC E. coli,E. coli (MTCC-443),50 µg/mL
same,MIC P. aeruginosa,P. aeruginosa (MTCC-741),100 µg/mL
same,IC50 (cytotoxicity),[1],609.1 µg/mL
same,MIC S. aureus,S. aureus (MTCC-96),50 µg/mL
same,MIC A. niger,A. niger,25 µg/mL
same,MIC C. albicans,C. albicans,25 µg/mL
same,% Inhibition,[2]; M. tb H37Rv,70%
same,antitubercular activity compared to PZA,[2],twice
same,MIC K. pneumoniae,K. pneumonia (MTCC2272),25 µg/mL
"CC1C(=NOCc2cc(-c3ccc(Cl)cc3)no2)CC(c2ccccc2)OC1c1ccccc1 (stereo not shown) [Compound 31, 3-Methyl-2,6-diphenyltetrahydro-4H-pyran-4-one-O-((3-(4-chlorophenyl)isoxazol-5-yl)methyl) oxime]",MIC,Rhizopus sp,25 µg/mL
same,MIC B. subtilius,B. subtilis (MTCC-121),12.5 µg/mL
same,potency against B. substilius compared to the standard drug,B. subtilis (MTCC-121),two-fold
same,MIC,A. flavus,12.5 µg/mL
same,MIC,E. coli (MTCC-443),12.5 µg/mL
same,MIC,P. aeruginosa (MTCC-741),12.5 µg/mL
same,MIC,A. niger,50 µg/mL
same,MIC,C. albicans,25 µg/mL
same,MIC,[2]; [3],6.25 µg/mL
same,inhibition at 6500 µg/mL,[2]; [3],90%
"3,5-Dimethyl-2,6-bis(p-methoxyphenyl)−4H-pyran-4-one O-((1-phenyl-1H-1,2,3-triazol-4-yl)methyl)oxime [Compound 30]",MIC B. subtilius,B. subtilis (MTCC-121),25 µg/mL
same,MIC A. niger,A. niger,12.5 µg/mL
same,MIC C. albicans,C. albicans,25 µg/mL
same,% Inhibition,[2]; M. tb H37Rv,80%
same,MIC K. pneumoniae,K. pneumonia (MTCC2272),25 µg/mL
"CC1C(=NOCc2cn(-c3ccccc3)nn2)CC(c2ccccc2)OC1c1ccccc1 (stereo not shown) [Compound 25, 3-Methyl-2,6-diphenyltetrahydro-4H-pyran-4-one O-((1-phenyl-1H-1,2,3-triazol-4-yl)methyl)oxime]",MIC,Rhizopus sp,25 µg/mL
same,MIC,A. flavus,12.5 µg/mL
same,MIC,E. coli (MTCC-443),25 µg/mL
same,MIC,P. aeruginosa (MTCC-741),12.5 µg/mL
same,MIC,A. niger,50 µg/mL
same,MIC,C. albicans,25 µg/mL
same,MIC,[2]; [3],6.25 µg/mL
same,inhibition at 6500 µg/mL,[2]; [3],75%
same,inhibitory activity against K. pneumoniae compared to standard drug,K. pneumonia (MTCC2272),four-fold
"3,5-Dimethyl-2,6-bis(p-methylphenyl)−4H-pyran-4-one O-((3-(4-chlorophenyl) isoxazol-5-yl)methyl) oxime [Compound 35]",MIC Rhizopus sp,Rhizopus sp,50 µg/mL
same,MIC B. subtilius,B. subtilis (MTCC-121),12.5 µg/mL
same,potency against B. substilius compared to the standard drug,B. subtilis (MTCC-121),two-fold
same,MIC A .flavus,A. flavus,25 µg/mL
same,MIC E. coli,E. coli (MTCC-443),25 µg/mL
same,MIC P. aeruginosa,P. aeruginosa (MTCC-741),25 µg/mL
same,MIC S. aureus,S. aureus (MTCC-96),12.5 µg/mL
same,MIC A. niger,A. niger,25 µg/mL
same,MIC C. albicans,C. albicans,25 µg/mL
same,MIC,"[2]; M. tb H37Rv, neutral pH",6.25 µg/mL
same,% Inhibition,[2]; M. tb H37Rv,82%
same,MIC K. pneumoniae,K. pneumonia (MTCC2272),25 µg/mL
"NC(=O)c1cnccn1 [PZA, pyrazinamide, reference compound]",MIC,[2]; [3],6.25 µg/mL
same,inhibition at 6500 µg/mL,[2]; [3],> 90%
"CCC1C(=NOCc2cc(-c3ccc(Cl)cc3)no2)CC(c2ccccc2)OC1c1ccccc1 (stereo not shown) [Compound 32, 3-Ethyl-2,6-diphenyltetrahydro-4H-pyran-4-one O-((3-(4-chlorophenyl)isoxazol-5-yl)methyl) oxime]",MIC,Rhizopus sp,12.5 µg/mL
same,MIC B. subtilius,B. subtilis (MTCC-121),12.5 µg/mL
same,potency against B. substilius compared to the standard drug,B. subtilis (MTCC-121),two-fold
same,MIC,A. flavus,6.3 µg/mL
same,MIC,E. coli (MTCC-443),25 µg/mL
same,MIC,P. aeruginosa (MTCC-741),25 µg/mL
same,MIC,A. niger,25 µg/mL
same,MIC,C. albicans,25 µg/mL
same,MIC,[2]; [3],6.25 µg/mL
same,inhibition at 6500 µg/mL,[2]; [3],91%
"3-Methyl-2,6-diphenylpyran-4-one N-isonicotinoylhydrazone [Compound 7]",MIC Rhizopus sp,Rhizopus sp,25 µg/mL
same,MIC B. subtilius,B. subtilis (MTCC-121),12.5 µg/mL
same,MIC A .flavus,A. flavus,12.5 µg/mL
same,MIC E. coli,E. coli (MTCC-443),6.3 µg/mL
same,MIC P. aeruginosa,P. aeruginosa (MTCC-741),12.5 µg/mL
same,MIC S. aureus,S. aureus (MTCC-96),25 µg/mL
same,MIC A. niger,A. niger,50 µg/mL
same,MIC C. albicans,C. albicans,25 µg/mL
same,MIC,"[2]; M. tb H37Rv, neutral pH",6.25 µg/mL
same,% Inhibition,[2]; M. tb H37Rv,73%
same,MIC K. pneumoniae,K. pneumonia (MTCC2272),12.5 µg/mL
"CCC1C(=NOCc2cn(-c3ccccc3)nn2)CC(c2ccccc2)OC1c1ccccc1 (stereo not shown) [Compound 26, 3-Ethyl-2,6-diphenyltetrahydro-4H-pyran-4-one O-((1-phenyl-1H-1,2,3-triazol-4-yl)methyl) oxime]",MIC,Rhizopus sp,12.5 µg/mL
same,MIC,A. flavus,6.3 µg/mL
same,MIC,E. coli (MTCC-443),12.5 µg/mL
same,MIC,P. aeruginosa (MTCC-741),25 µg/mL
same,MIC,A. niger,25 µg/mL
same,MIC,C. albicans,6.3 µg/mL
same,MIC,[2]; [3],6.25 µg/mL
same,inhibition at 6500 µg/mL,[2]; [3],70%
same,inhibitory activity against K. pneumoniae compared to standard drug,K. pneumonia (MTCC2272),four-fold
"3-Ethyl-2,6-diphenylpyran-4-one N-isonicotinoylhydrazone [Compound 8]",MIC Rhizopus sp,Rhizopus sp,12.5 µg/mL
same,MIC B. subtilius,B. subtilis (MTCC-121),6.3 µg/mL
same,MIC A .flavus,A. flavus,25 µg/mL
same,MIC E. coli,E. coli (MTCC-443),6.3 µg/mL
same,MIC P. aeruginosa,P. aeruginosa (MTCC-741),25 µg/mL
same,IC50 (cytotoxicity),[1],486.2 µg/mL
same,MIC S. aureus,S. aureus (MTCC-96),50 µg/mL
same,MIC A. niger,A. niger,25 µg/mL
same,MIC C. albicans,C. albicans,25 µg/mL
same,% Inhibition,[2]; M. tb H37Rv,70%
same,antitubercular activity compared to PZA,[2],twice
same,MIC K. pneumoniae,K. pneumonia (MTCC2272),12.5 µg/mL
"3,5-Dimethyl-2,6-bis(p-chlorophenyl)−4H-pyran-4-one O-((1-phenyl-1H-1,2,3-triazol-4-yl) methyl)oxime [Compound 27]",MIC B. subtilius,B. subtilis (MTCC-121),50 µg/mL
same,MIC A .flavus,A. flavus,25 µg/mL
same,MIC E. coli,E. coli (MTCC-443),6.3 µg/mL
same,inhibitory activity against E. coli compared to Streptomycin,E. coli (MTCC-443); versus Streptomycin,two-fold
same,MIC P. aeruginosa,P. aeruginosa (MTCC-741),25 µg/mL
same,MIC S. aureus,S. aureus (MTCC-96),25 µg/mL
same,MIC A. niger,A. niger,25 µg/mL
same,MIC,"[2]; M. tb H37Rv, neutral pH",6.25 µg/mL
same,% Inhibition,[2]; M. tb H37Rv,75%
same,MIC K. pneumoniae,K. pneumonia (MTCC2272),50 µg/mL
"CC[C@@H](CO)NCCN[C@@H](CC)CO [EMB, Ethambutol, reference compound]",MIC,[2]; [3],1.56 µg/mL
same,inhibition at 6500 µg/mL,[2]; [3],> 95%
"3,5-Dimethyl-2,6-bis(p-methylphenyl)pyran-4-one N-isonicotinoylhydrazone [Compound 11]",MIC Rhizopus sp,Rhizopus sp,50 µg/mL
same,MIC B. subtilius,B. subtilis (MTCC-121),25 µg/mL
same,MIC A .flavus,A. flavus,25 µg/mL
same,MIC E. coli,E. coli (MTCC-443),12.5 µg/mL
same,MIC P. aeruginosa,P. aeruginosa (MTCC-741),25 µg/mL
same,IC50 (cytotoxicity),[1],587.6 µg/mL
same,MIC S. aureus,S. aureus (MTCC-96),12.5 µg/mL
same,MIC A. niger,A. niger,50 µg/mL
same,MIC C. albicans,C. albicans,50 µg/mL
same,% Inhibition,[2]; M. tb H37Rv,76%
same,antitubercular activity compared to PZA,[2],twice
same,MIC K. pneumoniae,K. pneumonia (MTCC2272),25 µg/mL
"3-Methyl-2,6-diphenyltetrahydro-4H-pyran-4-one O-ethynyl oxime [Compound 19]",MIC Rhizopus sp,Rhizopus sp,100 µg/mL
same,MIC B. subtilius,B. subtilis (MTCC-121),25 µg/mL
same,MIC A .flavus,A. flavus,100 µg/mL
same,MIC E. coli,E. coli (MTCC-443),50 µg/mL
same,MIC P. aeruginosa,P. aeruginosa (MTCC-741),100 µg/mL
same,MIC S. aureus,S. aureus (MTCC-96),50 µg/mL
same,MIC A. niger,A. niger,50 µg/mL
same,MIC C. albicans,C. albicans,100 µg/mL
same,MIC K. pneumoniae,K. pneumonia (MTCC2272),25 µg/mL
"3,5-Dimethyl-2,6-bis(p-methoxyphenyl)−4H-pyran-4-one O-((3-(4-chlorophenyl) isoxazol-5-yl)methyl)oxime [Compound 36]",MIC Rhizopus sp,Rhizopus sp,50 µg/mL
same,MIC B. subtilius,B. subtilis (MTCC-121),50 µg/mL
same,MIC A .flavus,A. flavus,6.3 µg/mL
same,MIC E. coli,E. coli (MTCC-443),25 µg/mL
same,MIC P. aeruginosa,P. aeruginosa (MTCC-741),100 µg/mL
same,MIC S. aureus,S. aureus (MTCC-96),50 µg/mL
same,MIC A. niger,A. niger,6.3 µg/mL
same,MIC C. albicans,C. albicans,25 µg/mL
same,MIC,"[2]; M. tb H37Rv, neutral pH",6.25 µg/mL
same,% Inhibition,[2]; M. tb H37Rv,75%
same,MIC K. pneumoniae,K. pneumonia (MTCC2272),25 µg/mL
"NNC(=O)c1ccncc1 [INH, isoniazid, reference compound]",MIC,[2]; [3],0.1 µg/mL
same,inhibition at 6500 µg/mL,[2]; [3],> 95%
"3-Ethyl-2,6-diphenyltetrahydro-4H-pyran-4-one O-ethynyl oxime [Compound 20]",MIC Rhizopus sp,Rhizopus sp,50 µg/mL
same,MIC B. subtilius,B. subtilis (MTCC-121),25 µg/mL
same,MIC A .flavus,A. flavus,100 µg/mL
same,MIC E. coli,E. coli (MTCC-443),12.5 µg/mL
same,MIC P. aeruginosa,P. aeruginosa (MTCC-741),25 µg/mL
same,MIC S. aureus,S. aureus (MTCC-96),12.5 µg/mL
same,activity against S. aureus compared to the standard drug,S. aureus (MTCC-96); versus Streptomycin,fourfold
same,MIC A. niger,A. niger,25 µg/mL
same,MIC C. albicans,C. albicans,100 µg/mL
same,MIC K. pneumoniae,K. pneumonia (MTCC2272),25 µg/mL

# Reference: publication PMC10062711 (Journal of Molecular Structure, 2023)
